Laboratory results published in patent publication EP3262942A1, “SELENODIARYLS FOR USE AS MICROBICIDE OR AS MEDICINE” (Evonik Degussa GmbH, priority 2016, dated 2018).

Key:
Candida albicans = assay: Growth test in microtiter plates, HA medium, 24 h, visual evaluation; format: cell-based; parameters: key: +: kein Wachstum im Vergleich zur Wachstumskontrolle; -: Wachstum wie Wachstumskontrolle
Mucor miehei = assay: as above; format: cell-based; parameters: key to Aktivität gegenüber M. miehei: +: kein Wachstum im Vergleich zur Wachstumskontrolle; -: Wachstum wie Wachstumskontrolle
Penicillium notatum = assay: as above; format: cell-based; parameters: key: +: kein Wachstum im Vergleich zur Wachstumskontrolle; -: Wachstum wie Wachstumskontrolle
Paecilomyces variotii = assay: as above; format: cell-based; parameters: key: +: kein Wachstum im Vergleich zur Wachstumskontrolle; -: Wachstum wie Wachstumskontrolle
M. grisea H2O = assay: microbe, parasite or virus in culture; format: cell-based, Magnaporthe grisea; details: Pyricularia grisea, H2O, 24 h, read-out: Aktivität gegenüber M. grisea H2O
Botrytis cinerea = assay: microbe, parasite or virus in culture; format: cell-based; details: Botrytis cinerea, 24 h, read-out: Aktivität gegenüber B. cinerea
P. infestans = assay: microbe, parasite or virus in culture; format: cell-based, Phytophthora infestans; details: Phytophthora infestans, 24 h, read-out: Aktivität gegenüber P. infestans
M. grisea CM = assay: microbe, parasite or virus in culture; format: cell-based, Magnaporthe grisea; details: Pyricularia grisea, 24 h, read-out: Aktivität gegenüber M. grisea CM
Lepidium sativum = assay: Crop plant growth test, seeds on filter discs, 4 days, visual evaluation; format: in vivo
Procedure: (§1) Testsubstanzen und Kontrollen werden auf Filterrondellen in Mikrotiterplatten (48 well) vorgelegt und das verwendete Lösungsmittel (DMSO) über Lyophilisation entfernt. Anschließend werden ca. 12 Samen pro Vertiefung (Setaria italical Lepidium sativum) zugeben, mit 200 µl sterilem Leitungswasser pro Vertiefung versetzt, mit einem Deckel versehen und in einer feuchten Kammer für 4 Tage im Pflanzenbrutschrank inkubiert (16h-Licht-8h-Dunkel-Rhythmus). Die Auswertung des Tests erfolgt optisch (+: mind. 75 % Wachstumshemmung im Vergleich zur Kontrolle, -: weniger als 75 % Wachstumshemmung im Vergleich zur Kontrolle.

Setaria italica = assay: as above; format: in vivo
Procedure: as §1

[1] = test system: alle getesteten Pathogene; format: cell-based; details: 5-50 µg/mL

SMILES	Aktivität gegenüber C. albicans (Candida albicans; 10µg/mL)	Aktivität gegenüber C. albicans (Candida albicans; 50µg/mL)	Aktivität gegenüber M. miehei (Mucor miehei; 10µg/mL)	Aktivität gegenüber M. miehei (Mucor miehei; 50µg/mL)	Aktivität gegenüber P. notatum (Penicillium notatum; 10µg/mL)	Aktivität gegenüber P. notatum (Penicillium notatum; 50µg/mL)	Aktivität gegenüber P. variotii (Paecilomyces variotii; 10µg/mL)	Aktivität gegenüber P. variotii (Paecilomyces variotii; 50µg/mL)	inhibition of growth at 5 µg/mL (M. grisea H2O) [%]	inhibition of growth at 10 µg/mL (M. grisea H2O) [%]	inhibition of growth at 25 µg/mL (M. grisea H2O) [%]	inhibition of growth at 50 µg/mL (M. grisea H2O) [%]	inhibition of growth at 5 µg/mL (Botrytis cinerea) [%]	inhibition of growth at 10 µg/mL (Botrytis cinerea) [%]	inhibition of growth at 25 µg/mL (Botrytis cinerea) [%]	inhibition of growth at 50 µg/mL (Botrytis cinerea) [%]	inhibition of growth at 5 µg/mL (P. infestans) [%]	inhibition of growth at 10 µg/mL (P. infestans) [%]	inhibition of growth at 25 µg/mL (P. infestans) [%]	inhibition of growth at 50 µg/mL (P. infestans) [%]	further results
CCc1cc([Se]c2cc(CC)cc(C(C)(C)C)c2O)c(O)c(C(C)(C)C)c1 [Verbindung 15, Bis(3-tert-butyl-5-ethyl-2-hydroxyphenyl)selen]	-	-	-	-	-	-	-	-	0 to 25	0 to 25	0 to 25	0 to 25	0 to 25	0 to 25	0 to 25	0 to 25	0 to 25	0 to 25	0 to 25	0 to 25	inhibition of growth at 5 µg/mL (M. grisea CM): 0 to 25%; inhibition of growth at 10 µg/mL (M. grisea CM): 0 to 25%; inhibition of growth at 25 µg/mL (M. grisea CM): 0 to 25%; inhibition of growth at 50 µg/mL (M. grisea CM): 0 to 25%; Aktivität gegenüber Nutzpflanzen: L. sativum (Lepidium sativum; 10µg/R): - (weniger als 75 % Wachstumshemmung im Vergleich zur Kontrolle); Aktivität gegenüber Nutzpflanzen: L. sativum (Lepidium sativum; 20µg/R): - (weniger als 75 % Wachstumshemmung im Vergleich zur Kontrolle); Aktivität gegenüber Nutzpflanzen: L. sativum (Lepidium sativum; 50µg/R): - (weniger als 75 % Wachstumshemmung im Vergleich zur Kontrolle); Aktivität gegenüber Nutzpflanzen: S. italica (Setaria italica; 10µg/R): - (weniger als 75 % Wachstumshemmung im Vergleich zur Kontrolle); Aktivität gegenüber Nutzpflanzen: S. italica (Setaria italica; 20µg/R): - (weniger als 75 % Wachstumshemmung im Vergleich zur Kontrolle); Aktivität gegenüber Nutzpflanzen: S. italica (Setaria italica; 50µg/R): - (weniger als 75 % Wachstumshemmung im Vergleich zur Kontrolle); Aktivität im Wachstums- und Keimungshemmungstest gegen die getesteten Pathogene [1]: weder im Wachstums- noch im Keimungshemmungstest im verwendeten Konzentrationsbereich eine entsprechende Aktivität
CCC(C)(C)c1cc([Se]c2cc(C(C)(C)CC)cc(C(C)(C)CC)c2O)c(O)c(C(C)(C)CC)c1 [Verbindung 16, Bis(3,5-di(1,1-dimethylpropyl)-2-hydroxyphenyl)selen]	-	-	-	-	-	-	-	-	0 to 25	0 to 25	0 to 25	0 to 25	0 to 25	0 to 25	0 to 25	0 to 25	0 to 25	0 to 25	0 to 25	0 to 25	inhibition of growth at 5 µg/mL (M. grisea CM): 0 to 25%; inhibition of growth at 10 µg/mL (M. grisea CM): 0 to 25%; inhibition of growth at 25 µg/mL (M. grisea CM): 0 to 25%; inhibition of growth at 50 µg/mL (M. grisea CM): 0 to 25%; Aktivität gegenüber Nutzpflanzen: L. sativum (Lepidium sativum; 10µg/R): - (weniger als 75 % Wachstumshemmung im Vergleich zur Kontrolle); Aktivität gegenüber Nutzpflanzen: L. sativum (Lepidium sativum; 20µg/R): - (weniger als 75 % Wachstumshemmung im Vergleich zur Kontrolle); Aktivität gegenüber Nutzpflanzen: L. sativum (Lepidium sativum; 50µg/R): - (weniger als 75 % Wachstumshemmung im Vergleich zur Kontrolle); Aktivität gegenüber Nutzpflanzen: S. italica (Setaria italica; 10µg/R): - (weniger als 75 % Wachstumshemmung im Vergleich zur Kontrolle); Aktivität gegenüber Nutzpflanzen: S. italica (Setaria italica; 20µg/R): - (weniger als 75 % Wachstumshemmung im Vergleich zur Kontrolle); Aktivität gegenüber Nutzpflanzen: S. italica (Setaria italica; 50µg/R): - (weniger als 75 % Wachstumshemmung im Vergleich zur Kontrolle); Aktivität im Wachstums- und Keimungshemmungstest gegen die getesteten Pathogene [1]: weder im Wachstums- noch im Keimungshemmungstest im verwendeten Konzentrationsbereich eine entsprechende Aktivität
Cc1cc(C(C)C)c(O)c([Se]c2c(C)c(C)cc(C(C)C)c2O)c1C [Verbindung 18, Bis(5,6-dimethyl-2-hydroxy-3-isopropylphenyl)selen]	-	-	-	-	-	-	-	-	0 to 25	0 to 25	0 to 25	0 to 25	0 to 25	0 to 25	0 to 25	0 to 25	0 to 25	0 to 25	0 to 25	0 to 25	inhibition of growth at 5 µg/mL (M. grisea CM): 0 to 25%; inhibition of growth at 10 µg/mL (M. grisea CM): 0 to 25%; inhibition of growth at 25 µg/mL (M. grisea CM): 0 to 25%; inhibition of growth at 50 µg/mL (M. grisea CM): 0 to 25%; Aktivität gegenüber Nutzpflanzen: L. sativum (Lepidium sativum; 10µg/R): - (weniger als 75 % Wachstumshemmung im Vergleich zur Kontrolle); Aktivität gegenüber Nutzpflanzen: L. sativum (Lepidium sativum; 20µg/R): - (weniger als 75 % Wachstumshemmung im Vergleich zur Kontrolle); Aktivität gegenüber Nutzpflanzen: L. sativum (Lepidium sativum; 50µg/R): - (weniger als 75 % Wachstumshemmung im Vergleich zur Kontrolle); Aktivität gegenüber Nutzpflanzen: S. italica (Setaria italica; 10µg/R): - (weniger als 75 % Wachstumshemmung im Vergleich zur Kontrolle); Aktivität gegenüber Nutzpflanzen: S. italica (Setaria italica; 20µg/R): - (weniger als 75 % Wachstumshemmung im Vergleich zur Kontrolle); Aktivität gegenüber Nutzpflanzen: S. italica (Setaria italica; 50µg/R): - (weniger als 75 % Wachstumshemmung im Vergleich zur Kontrolle); Aktivität im Wachstums- und Keimungshemmungstest gegen die getesteten Pathogene [1]: weder im Wachstums- noch im Keimungshemmungstest im verwendeten Konzentrationsbereich eine entsprechende Aktivität
